The target in one assay is E. coli β-GUS (Escherichia coli, UniProt P05804). The experiment in a line: β-GUS inhibition assay. In kind it is biochemical. As to conditions: for Inhibition type, β-GUS: Lineweaver–Burk and Dixon plots, substrate 4-MUG.
For another assay, the target named is S. cerevisiae α-GUS (Saccharomyces cerevisiae, UniProt P07265). Description: α-GUS inhibition assay. The format is biochemical.
Assay [1] has as its target protein tyrosine phosphatase-1B. As to conditions: read-out: IC50 protein tyrosine phosphatase-1B; cited from earlier work.
For a further assay, the system named is colorectal cancer cells. As to conditions: 7.1 μM; cited from earlier work.
Assay [2] concerns platelet-activating factor acetyltransferase. As to conditions: read-out: IC50 platelet-activating factor acetyltransferase; cited from earlier work.
Assay [3] deals with human umbilical vein endothelial cells. Conditions: cited from earlier work.
The subject of another assay is L6 myotubes. Conditions: cited from earlier work.
The target in a further assay is α-amylase. As to conditions: read-out: IC50 α-amylase; cited from earlier work.
Another assay relates to α-GUS. As to conditions: read-out: IC50 against α-GUS; cited from earlier work.
The test system of the next assay is β-GUS. Conditions: read-out: IC50 against β-GUS; cited from earlier work.
[4] abbreviates: substrate kinetics, preliminary kinetic assay.

Each structure is given as a SMILES string.

Sequence of S. cerevisiae α-GUS (P07265 whole entry): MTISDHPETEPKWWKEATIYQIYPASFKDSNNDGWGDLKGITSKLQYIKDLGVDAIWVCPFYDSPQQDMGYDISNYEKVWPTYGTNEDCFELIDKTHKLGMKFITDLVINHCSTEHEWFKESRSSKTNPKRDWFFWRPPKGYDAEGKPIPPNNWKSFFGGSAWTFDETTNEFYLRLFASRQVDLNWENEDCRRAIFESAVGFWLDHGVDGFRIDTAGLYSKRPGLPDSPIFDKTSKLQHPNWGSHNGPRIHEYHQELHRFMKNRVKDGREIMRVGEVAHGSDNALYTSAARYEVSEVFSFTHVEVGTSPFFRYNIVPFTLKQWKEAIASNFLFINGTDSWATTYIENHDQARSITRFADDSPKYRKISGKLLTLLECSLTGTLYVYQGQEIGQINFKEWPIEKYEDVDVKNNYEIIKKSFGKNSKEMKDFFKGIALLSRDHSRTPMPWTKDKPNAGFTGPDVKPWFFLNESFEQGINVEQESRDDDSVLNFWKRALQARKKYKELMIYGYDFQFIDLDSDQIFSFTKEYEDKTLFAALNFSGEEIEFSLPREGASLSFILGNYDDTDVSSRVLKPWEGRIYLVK
Sequence of E. coli β-GUS (P05804 whole entry): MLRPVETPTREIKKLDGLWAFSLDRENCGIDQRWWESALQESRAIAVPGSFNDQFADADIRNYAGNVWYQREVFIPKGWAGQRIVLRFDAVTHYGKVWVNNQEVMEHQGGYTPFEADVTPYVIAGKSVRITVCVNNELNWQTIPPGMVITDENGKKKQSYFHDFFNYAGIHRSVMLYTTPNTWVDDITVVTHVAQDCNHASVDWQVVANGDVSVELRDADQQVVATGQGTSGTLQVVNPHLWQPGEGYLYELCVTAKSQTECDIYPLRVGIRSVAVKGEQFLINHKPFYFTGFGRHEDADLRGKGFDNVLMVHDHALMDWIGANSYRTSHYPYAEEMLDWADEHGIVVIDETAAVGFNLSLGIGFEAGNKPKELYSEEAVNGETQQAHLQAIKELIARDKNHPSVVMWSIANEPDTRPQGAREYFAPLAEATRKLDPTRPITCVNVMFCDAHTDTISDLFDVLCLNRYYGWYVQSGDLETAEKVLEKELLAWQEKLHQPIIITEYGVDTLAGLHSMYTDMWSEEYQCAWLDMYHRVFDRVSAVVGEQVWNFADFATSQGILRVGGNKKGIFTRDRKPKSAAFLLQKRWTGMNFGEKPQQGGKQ

Consider `Cc1cc(=O)oc2cc(O[C@@H]3O[C@H](C(=O)O)[C@@H](O)[C@H](O)[C@H]3O)ccc12` [4-MUG, 4-Methylumbelliferyl-β-D-glucuronide, reference compound], for which the “Vmax for 4-MUG hydrolysis by β-GUS” value at E. coli β-GUS (setting [4]) came out at 7.21 ± 0.10 µmol/min/mg.

What is called Ki is the dissociation constant of the complex between target and ligand, obtained from inhibition or displacement. A low value points to tighter binding. As usually defined, the IC50 is the concentration at which inhibition is half-maximal. For `CC(C)=CCc1c(O)c(CC=C(C)C)c2occ(-c3ccc(O)cc3)c(=O)c2c1O` [DPG, 6,8-diprenylgenistein], the Ki at S. cerevisiae α-GUS was 11.4 ± 2.2 µM; on E. coli β-GUS, 2.62 ± 0.1 µM. In addition, the IC50 is 60.6 ± 10.3 µM at S. cerevisiae α-GUS (IC50 for inhibition of α-GUS, substrate PNPG 500 μM); 2.3 to 28 µM in assay [1]; 4.05 ± 0.16 µM at E. coli β-GUS; 19 µM in assay [2]; 14.8 µM at α-amylase. Besides, the “Inhibition type, α-GUS” value at S. cerevisiae α-GUS (Lineweaver–Burk and Dixon plots, substrate PNPG) is “Un-competitive”. For the same compound, the “Inhibition type, β-GUS” value on E. coli β-GUS is recorded as “Non-competitive”; at E. coli β-GUS (listed as Diprenylgenistein), “competitive”. The “effect on colorectal cancer cells” value with colorectal cancer cells is “trigger dual apoptosis and autophagy”. In addition, in [3], the “concentration reversing high glucose induced injury” value was more than 2.5 µM. In addition, the “concentration increasing basal and insulin-stimulated glucose uptake” value in the assay on L6 myotubes was more than 10 µM.

Take `O=C(O)[C@@H](O)[C@H]1OC(=O)[C@H](O)[C@H]1O` [DSL, D-Saccharic acid 1,4-lactone, reference compound]: inhibition against E. coli β-GUS was half-maximal at 55 ± 7.6 µM (IC50).

For the compound `O=[N+]([O-])c1ccc(O[C@H]2O[C@H](CO)[C@@H](O)[C@H](O)[C@H]2O)cc1` [PNPG, 4-Nitrophenyl-α-D-glucopyranoside, reference compound], on S. cerevisiae α-GUS (setting [4]), the “Vmax for PNPG hydrolysis by α-GUS” value is listed as 1.05 ± 0.03 μmol/min/U.

Consider `O=c1c(-c2ccc(O)cc2)coc2cc(O)ccc12` [daidzein], for which the IC50 in the assay with α-GUS and with β-GUS was more than 100 µM each time.

These data come from paper PMC12082738 (Journal of Enzyme Inhibition and Medicinal Chemistry, 2025).
